Source: patent US20170144969A1, “ANT[…], METHOD FOR PRODUCTION AND USES THEREOF” (priority 2014, published 2017)

Key:
S. aureus (MTCC 737) = experiment: Minimum Inhibitory Concentration, micro-dilution broth; format: cell-based, Staphylococcus aureus; conditions: 24 h, 37° C.
[1] = system: Enterococcus faecium (ATCC 19634); experiment: as above; format: cell-based; conditions: 24 h, 37° C.; read-out: Minimum Inhibitory Concentration E. faceium
E. coli (MTCC 443) = experiment: as above; format: cell-based; conditions: 24 h, 37° C.
MRSA (ATCC 33591) = experiment: as above; format: cell-based, methicillin-resistant S. aureus; conditions: 24 h, 37° C.
[2] = system: vancomycin resistant Enterococcus faecium (VRE) (ATCC 51559); experiment: as above; format: cell-based; conditions: 24 h, 37° C.
[3] = system: Klebsiella pneumoniae (ATCC 700603); experiment: as above; format: cell-based; conditions: 24 h, 37° C.
human Red Blood Cells = experiment: Haemolytic activity; conditions: human RBCs, 1 h at 37° C.
S. aureus biofilms = experiment: Bacterial biofilm disruption (pre-formed biofilm); format: cell-based; conditions: 64×MIC, 24 h

Row | SMILES | MIC (S. aureus (MTCC 737)) | MIC [1] | MIC (E. coli (MTCC 443)) | Minimum Inhibitory Concentration MRSA (MRSA (ATCC 33591)) | MIC [2] | Minimum Inhibitory Concentration K. pneumonie [3] | HC50 (human Red Blood Cells; Table 3) | HC50 (human Red Blood Cells; Table 6) | reduction of cell viability in pre-existing biofilms (S. aureus biofilms)
1 | CCCCCCCCCCCCCC(=O)N(CCCNC(=O)[C@@H](N)CCCCN)CCCNC(=O)[C@@H](N)CCCCN.O=C(O)C(F)(F)F.O=C(O)C(F)(F)F [Compound 11, N,N-bis-[{3-(^LLys)amino}propyl]tetradecanamide bis(trifluoroacetate)] | 7.8 µM | 2 µM | 5.9 µM | 14 µM | 1.5 µM | 9.3 µM | 588 |  | 
2 | CCCCCCCCCCCC(=O)N(CCCNC(=O)CN)CCCNC(=O)CN.O=C(O)C(F)(F)F.O=C(O)C(F)(F)F [Compound 42, N,N-bis-[{3-(Gly)amido}propyl]dodecanamide bis(trifluoroacetate)] | 67 µM | 86 µM | 340 µM | 61 µM | 112 µM | >340 µM |  | 400 µM | 
3 | CCCCCCCCCCCCCC(=O)N(CCCNC(=O)CN)CCCNC(=O)CN.O=C(O)C(F)(F)F.O=C(O)C(F)(F)F [Compound 43, N,N-bis-[{3-(Gly)amido}propyl]tetradecanamide bis(trifluoroacetate)] | 12.5 µM | 8.8 µM | 16 µM | 10.8 µM | 13 µM | >365 µM |  | 157 µM | 
4 | CCCCCCCCCCCCCCCC(=O)N(CCCNC(=O)CN)CCCNC(=O)CN.O=C(O)C(F)(F)F.O=C(O)C(F)(F)F [Compound 44, N,N-bis-[{3-(Gly)amido}propyl]hexadecanamide bis(trifluoroacetate)] | 6.5 µM | 4 µM | 5.9 µM | 10 µM | 3.3 µM | >365 µM |  | 90 µM | 
5 | CCCCCCCCCCCC(=O)N(CCCNC(=O)[C@H](C)N)CCCNC(=O)[C@H](C)N.O=C(O)C(F)(F)F.O=C(O)C(F)(F)F [Compound 45, N,N-bis-[{3-(^LAla)amido}propyl]dodecanamide bis(trifluoroacetate)] | 95 µM | 73 µM | 282 µM | 133 µM | 82 µM | >365 µM |  | 562 µM | 
6 | CCCCCCCCCCCCCC(=O)N(CCCNC(=O)[C@H](C)N)CCCNC(=O)[C@H](C)N.O=C(O)C(F)(F)F.O=C(O)C(F)(F)F [Compound 46, N,N-bis-[{3-(^LAla)amido}propyl]tetradecanamide bis(trifluoroacetate)] | 19 µM | 9 µM | 17 µM | 17 µM | 7.6 µM | >360 µM |  | 93 µM | 
7 | CCCCCCCCCCCCCCCC(=O)N(CCCNC(=O)[C@H](C)N)CCCNC(=O)[C@H](C)N.O=C(O)C(F)(F)F.O=C(O)C(F)(F)F [Compound 47, N,N-bis-[{3-(^LAla)amido}propyl]hexadecanamide bis(trifluoroacetate)] | 5.6 µM | 3 µM | 4 µM | 6 µM | 3 µM | 12 µM |  | 68 µM | 
8 | CCCCCCCCCCCC(=O)N(CCCNC(=O)[C@@H](N)C(C)C)CCCNC(=O)[C@@H](N)C(C)C.O=C(O)C(F)(F)F.O=C(O)C(F)(F)F [Compound 48, N,N-bis-[{3-(Val)amido}propyl]dodecanamide bis(trifluoroacetate)] | 28 µM | 25 µM | 18 µM | 40 µM | 25 µM | 58 µM |  | 264 µM | 
9 | CCCCCCCCCCCCCC(=O)N(CCCNC(=O)[C@@H](N)C(C)C)CCCNC(=O)[C@@H](N)C(C)C.O=C(O)C(F)(F)F.O=C(O)C(F)(F)F [Compound 49, N,N-bis-[{3-(^LVal)amido}propyl]tetradecanamide bis(trifluoroacetate)] | 4 µM | 3.6 µM | 7 µM | 3.4 µM | 4 µM | 7.3 µM |  | 134 µM | 
10 | CCCCCCCCCCCCCCCC(=O)N(CCCNC(=O)[C@@H](N)C(C)C)CCCNC(=O)[C@@H](N)C(C)C.O=C(O)C(F)(F)F.O=C(O)C(F)(F)F [Compound 50, N,N-bis-[{3-(^LVal)amido}propyl]hexadecanamide bis(trifluoroacetate)] | 2.7 µM | 1.7 µM | 10 µM | 1.9 µM | 1.4 µM | >314 µM |  | 86 µM | 
11 | CCCCCCCCCCCC(=O)N(CCCNC(=O)[C@@H](N)[C@@H](C)CC)CCCNC(=O)[C@@H](N)[C@@H](C)CC.O=C(O)C(F)(F)F.O=C(O)C(F)(F)F [Compound 51, N,N-bis-[{3-(^LIle)amido}propyl]dodecanamide bis(trifluoroacetate)] | 8 µM | 8 µM | 11 µM | 5.7 µM | 11.3 µM | 28 µM |  | 95 µM | 
12 | CCCCCCCCCCCCCC(=O)N(CCCNC(=O)[C@@H](N)[C@@H](C)CC)CCCNC(=O)[C@@H](N)[C@@H](C)CC.O=C(O)C(F)(F)F.O=C(O)C(F)(F)F [Compound 52, N,N-bis-[{3-(^LIle)amido}propyl]tetradecanamide bis(trifluoroacetate)] | 3 µM | 4 µM | 5 µM | 2.9 µM | 2.6 µM | 300 µM |  | 64 µM | 
13 | CCCCCCCCCCCC(=O)N(CCCNC(=O)[C@@H](N)CC(C)C)CCCNC(=O)[C@@H](N)CC(C)C.O=C(O)C(F)(F)F.O=C(O)C(F)(F)F [Compound 54, N,N-bis-[{3-(^LLeu)amido}propyl]dodecanamide bis(trifluoroacetate)] | 5.8 µM | 8.6 µM | 8.8 µM | 8.9 µM | 5 µM | 18 µM |  | 305 µM | 
14 | CCCCCCCCCCCCCCCC(=O)N(CCCNC(=O)[C@@H](N)CC(C)C)CCCNC(=O)[C@@H](N)CC(C)C.O=C(O)C(F)(F)F.O=C(O)C(F)(F)F [Compound 56, N,N-bis-[{3-(^LLeu)amido}propyl]hexadecanamide bis(trifluoroacetate)] | 3.8 µM | 3.4 µM | 20 µM | 2.9 µM | 3.4 µM | 280 µM |  | 95 µM | 
15 | CCCCCCCCCCCC(=O)N(CCCNC(=O)[C@@H]1CCCN1)CCCNC(=O)[C@@H]1CCCN1.O=C(O)C(F)(F)F.O=C(O)C(F)(F)F [Compound 57, N,N-bis-[{3-(^LPro)amido}propyl]dodecanamide bis(trifluoroacetate)] | 60 µM | 78 µM | 90 µM | 130 µM | 112 µM | >340 µM |  | 918 µM | 
16 | CCCCCCCCCCCCCC(=O)N(CCCNC(=O)[C@@H]1CCCN1)CCCNC(=O)[C@@H]1CCCN1.O=C(O)C(F)(F)F.O=C(O)C(F)(F)F [Compound 58, N,N-bis-[{3-(^LPro)amido}propyl]tetradecanamide bis(trifluoroacetate)] | 11 µM | 13 µM | 12 µM | 15 µM | 18 µM | 135 µM |  | 216 µM | 
17 | CCCCCCCCCCCCCCCC(=O)N(CCCNC(=O)[C@@H]1CCCN1)CCCNC(=O)[C@@H]1CCCN1.O=C(O)C(F)(F)F.O=C(O)C(F)(F)F [Compound 59, N,N-bis-[{3-(^LPro)amido}propyl]hexadecanamide bis(trifluoroacetate)] | 2.8 µM | 4 µM | 4.4 µM | 7.2 µM | 2.7 µM | 12 µM |  | 76 µM | 
18 | CC[C@H]1OC(=O)[C@H](C)[C@@H](O[C@H]2C[C@@](C)(OC)[C@@H](O)[C@H](C)O2)[C@H](C)[C@@H](O[C@@H]2O[C@H](C)C[C@H](N(C)C)[C@H]2O)[C@](C)(O)C[C@@H](C)C(=O)[C@H](C)[C@@H](O)[C@]1(C)O [erythromycin, reference compound] |  |  |  |  |  |  |  |  | none of the antibiotics showed significant reduction
19 | CC(=O)NC[C@H]1CN(c2ccc(N3CCOCC3)c(F)c2)C(=O)O1 [linezolid, reference compound] |  |  |  |  |  |  |  |  | none of the antibiotics showed significant reduction
20 | CN[C@H](CC(C)C)C(=O)N[C@H]1C(=O)N[C@@H](CC(N)=O)C(=O)N[C@H]2C(=O)N[C@H]3C(=O)N[C@H](C(=O)N[C@H](C(=O)O)c4cc(O)cc(O)c4-c4cc3ccc4O)[C@H](O)c3ccc(c(Cl)c3)Oc3cc2cc(c3O[C@@H]2O[C@H](CO)[C@@H](O)[C@H](O)[C@H]2O[C@H]2C[C@](C)(N)[C@H](O)[C@H](C)O2)Oc2ccc(cc2Cl)[C@H]1O [vancomycin, reference compound] |  |  |  |  |  |  |  |  | none of the antibiotics showed significant reduction
